Each structure is given as a SMILES string.

We go through 16 compounds from patent US6335465B1, “Sterilized 5-aminolevulinic acid” (Dusa Pharmaceuticals, Inc., priority 1997, dated 2002).

Format in all cases: physicochemical
Data set [1] in a line: Color of crystalline ALA hydrochloride in sealed vials after gamma irradiation. Conditions: crystals in sealed 60 ml glass vials after gamma radiation at the target dose (0, 15 or 30 KGys). Here is the method:
ALA hydrochloride salt was obtained from Sochinaz, S.A., Vionnez, Switzerland. 1.65 grams of ALA hydrochloride salt was placed into 60 ml glass vials. 360 vials of crystalline non-irradiated ALA were prepared. of these, 225 vials were sealed under ambient conditions,and were irradiated with gamma radiation as shown in Table 1. Crystalline ALA was first micronized by pulverizing into fine particles a few μm in diameter by a jet mill by Micro-Macinazione, S.A. to determine if further reducing the crystalline size would have any effect on the color of the irradiated ALA. After micronization, 1.65 grams of ALA hydrochloride salt was placed into 60 ml glass vials. A total of 270 vials of crystalline non-irradiated ALA were prepared.

The nature of data set [2]: Degradation of crystalline ALA under gamma radiation. The following applies: gamma radiation dose of 25 kilograys or greater. The source says:
This is significant, in that the United States Food and Drug Administration's (“FDA”) level of gamma irradiation for “overkill” is 25 kilograys. This is a level at which the FDA presumes, without evidence, that virtually all microorganisms have been killed.

The nature of data set [3]: Comparison of irradiated and non-irradiated ALA (spectroscopic, chromatographic, solution pH, solubility profile, calorimetry; FIGS. 2-14). Conditions: solution pH or solubility profile, except for the color. The source says:
This is explained more fully below with respect to FIGS. 2 to 14.
Although not intending to be bound by any theory, it appears that the color imparted by irradiation is due to F-centers.
The calorimetric measurements of FIGS. 2 and 3 indicate that any major structural differences are present in quantities of less than 1% of the total ALA amount, or that the type of any structural modification is such that the sensitivity of the calorimetric assay to the change is below the capacity of the instrumentation.
Spectral reflectance as shown in FIGS. 4 and 8-10 is very sensitive to spectral differences at or near the surface, while photoacoustic spectroscopy (“PAS”) as shown in FIGS. 5-7 is sensitive to changes both at the surface and the interior of the crystal.
Subsequent analysis of the type described above with respect to FIGS. 2-14, confirmed that there was no discernible difference in structure or pharmacological activity between the irradiated examples and the non-irradiated control comparative examples.

Data set [4] can be described thus: Storage stability of gamma irradiated ALA in the sealed bottle. Conditions: despite the yellow color of the irradiated crystals. The source says: The present invention is based on the finding that sterile ALA can be made and prepared well in advance of its final use, despite the extreme degradation generally found with ALA as noted above.

Regarding `NCC(=O)CCC(=O)O` [Example 10, 5-aminolevulinic acid], the color entry in data set [1] is on record as “yellow”. In the case of `NCC(=O)CCC(=O)O` [Example 8, 5-aminolevulinic acid], in data set [1], the color entry is on record as “yellow”. On to `NCC(=O)CCC(=O)O` [crystalline ALA, 5-aminolevulinic acid], for which the “degradation of the ALA at high gamma dose” value in data set [2] is reported as “without detectable degradation”. With `NCC(=O)CCC(=O)O` [Example 3, 5-aminolevulinic acid], in data set [1], the color entry is recorded as “yellow”. `NCC(=O)CCC(=O)O` [Example 7, 5-aminolevulinic acid]: the color entry in data set [1] is listed as “yellow”. On to `NCC(=O)CCC(=O)O` [Comp. Ex. 4, 5-aminolevulinic acid], for which the color result in data set [1] is given as “off white”. As for `NCC(=O)CCC(=O)O` [Example 4, 5-aminolevulinic acid], the color entry in data set [1] is reported as “yellow”. The same measure, in the same setting: for `NCC(=O)CCC(=O)O` [Example 6, 5-aminolevulinic acid] the value was “yellow”; for `NCC(=O)CCC(=O)O` [Comp. Ex. 3, 5-aminolevulinic acid], “off white”. For `NCC(=O)CCC(=O)O` [Example 2, 5-aminolevulinic acid], the color entry in data set [1] is given as “yellow”. Regarding `NCC(=O)CCC(=O)O` [Example 5, 5-aminolevulinic acid], the color result in data set [1] is recorded as “yellow”. On the same count and under the same terms, for `NCC(=O)CCC(=O)O` [Comp. Ex. 2, 5-aminolevulinic acid] the value was “off white”. As to `NCC(=O)CCC(=O)O` [irradiated crystalline ALA, 5-aminolevulinic acid], in data set [3], the “chemical properties versus non-irradiated ALA” value was “has not been distinguished in any chemical property from non-irradiated ALA”. Moreover, the degradation after irradiation result in data set [4] is “had not been degraded”. As for `NCC(=O)CCC(=O)O` [Example 1, 5-aminolevulinic acid], in data set [1], the color result is recorded as “yellow”.

`NCC(=O)CCC(=O)O` [Comp. Ex. 1, 5-aminolevulinic acid]: the color entry in data set [1] was “off white”. Turning to `NCC(=O)CCC(=O)O` [Example 9, 5-aminolevulinic acid], the color entry in data set [1] is recorded as “yellow”.
